From US10526327B2, “Histone demethylase inhibitors” (CELGENE QUANTICEL RESEARCH, INC., priority 2013, dated 2020)

These molecules were tested on KDM5A/B (assay: In vitro cell-based assay: immuno-blot quantification of tri-methyl H3K4 in ZR-75-1 breast cancer cells). Settings: 72 hours, tri-methyl H3K4 level relative to GAPDH, percent of DMSO, read-out: Cellular IC50.
Summary of the method: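 ZR-75-1 breast cancer cells treated 72 h with 11-point compound dilutions (1250 μM to 10 nM). H3K4me3 quantified by infrared immunoblot densitometry, normalized to GAPDH and expressed as percent of DMSO control; relative IC50 from curve fit.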
Molecule `CCOc1nc(O)c2ccncc2n1` [Example 2, 2-ethoxypyrido[3,4-d]pyrimidin-4-ol] has an IC50 greater than 10 µM.
In the case of `CC(C)(O)CCOc1nc(O)c2ccncc2n1` [Example 24, 2-(3-hydroxy-3-methylbutoxy)pyrido[3,4-d]pyrimidin-4-ol], the IC50 is reported as greater than 10 µM.
Work on `Oc1nc(Oc2ccccc2)nc2cnccc12` [Example 34, 2-phenoxypyrido[3,4-d]pyrimidin-4-ol] yielded an IC50 greater than 10 µM.

The molecules below were run against T1, Jarid1B (Homo sapiens, UniProt Q9UGL1) (assay: Jarid1B in vitro enzyme inhibition assay (TR-FRET)). Settings: not given.
T1 construct: purchased BPS Bioscience or custom made by MolecularThroughput 50121
T1 sequence (Q9UGL1 2-751): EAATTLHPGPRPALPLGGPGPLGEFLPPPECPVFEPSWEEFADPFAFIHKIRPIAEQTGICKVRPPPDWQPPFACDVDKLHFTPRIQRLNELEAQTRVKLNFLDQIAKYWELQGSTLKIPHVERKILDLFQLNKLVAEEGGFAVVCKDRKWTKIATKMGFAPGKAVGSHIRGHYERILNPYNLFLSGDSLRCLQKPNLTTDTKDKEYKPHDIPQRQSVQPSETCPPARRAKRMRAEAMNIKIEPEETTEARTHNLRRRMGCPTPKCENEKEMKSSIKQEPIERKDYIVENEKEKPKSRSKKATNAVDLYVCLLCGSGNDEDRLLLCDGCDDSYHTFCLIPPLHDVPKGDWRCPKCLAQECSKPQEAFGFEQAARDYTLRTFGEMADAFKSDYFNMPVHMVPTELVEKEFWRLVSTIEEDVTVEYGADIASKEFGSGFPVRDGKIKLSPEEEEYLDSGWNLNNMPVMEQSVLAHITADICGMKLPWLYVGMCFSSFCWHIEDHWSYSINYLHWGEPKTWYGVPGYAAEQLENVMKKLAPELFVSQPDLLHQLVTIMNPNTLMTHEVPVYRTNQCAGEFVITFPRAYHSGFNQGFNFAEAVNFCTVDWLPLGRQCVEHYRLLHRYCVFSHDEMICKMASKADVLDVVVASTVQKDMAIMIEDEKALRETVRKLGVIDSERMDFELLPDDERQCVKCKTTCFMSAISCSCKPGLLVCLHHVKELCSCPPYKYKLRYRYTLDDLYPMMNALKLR
Format: biochemical
Summary of the method: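 TR-FRET read-out of demethylated product (Eu-anti-H3K4me1-2, streptavidin-APC) after EDTA quench; ratio 665/615 fitted to IC50. Reaction: 30 min at RT, 0.8 nM baculovirus Jarid1B residues 2-751, 2 μM α-ketoglutarate, 300 nM H3K4me3-biotin peptide, pH 7.3 buffer with Fe(II) and ascorbate.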
Molecule `CC(C)Oc1nc(O)c2ccncc2n1` [Example 1, 2-propan-2-yloxy-3H-pyrido[3,4-d]pyrimidin-4-one] has an IC50 of 100 to 1000 nM.
For `CCOc1nc(O)c2ccncc2n1` [Example 2, 2-ethoxypyrido[3,4-d]pyrimidin-4-ol], the IC50 was no more than 100 nM.
Work on `Oc1nc(OCCOCC(F)(F)F)nc2cnccc12` [Example 23, 2-[2-(2,2,2-trifluoroethoxy)ethoxy]pyrido[3,4-d]pyrimidin-4-ol] yielded an IC50 of 100 to 1000 nM.
`CC(C)(O)CCOc1nc(O)c2ccncc2n1` [Example 24, 2-(3-hydroxy-3-methylbutoxy)pyrido[3,4-d]pyrimidin-4-ol] gave an IC50 of no more than 100 nM.
`CC(CO)COc1nc(O)c2ccncc2n1` (stereo not drawn) [Example 25, 2-(3-hydroxy-2-methylpropoxy)pyrido[3,4-d]pyrimidin-4-ol] gave an IC50 of 100 to 1000 nM.
Molecule `Oc1nc(OCC2CCCO2)nc2cnccc12` (stereo not drawn) [Example 26, 2-(oxolan-2-ylmethoxy)pyrido[3,4-d]pyrimidin-4-ol] has an IC50 of 1000 to 10000 nM.
In the case of `Oc1nc(OCC2CCOC2)nc2cnccc12` (stereo not drawn) [Example 27, 2-(oxolan-3-ylmethoxy)pyrido[3,4-d]pyrimidin-4-ol], the IC50 is reported as 100 to 1000 nM.
Molecule `CC(=O)N(C)CCOc1nc(O)c2ccncc2n1` [Example 28, N-[2-(4-hydroxypyrido[3,4-d]pyrimidin-2-yl)oxyethyl]-N-methylacetamide] has an IC50 of 100 to 1000 nM.
`CC(C)OCCOc1nc(O)c2ccncc2n1` [Example 29, 2-(2-propan-2-yloxyethoxy)pyrido[3,4-d]pyrimidin-4-ol] showed an IC50 of 100 to 1000 nM.
For `Oc1nc(OCCOCc2ccccc2)nc2cnccc12` [Example 30, 2-(2-phenylmethoxyethoxy)pyrido[3,4-d]pyrimidin-4-ol], the IC50 was 100 to 1000 nM.
`O=C(NCCOc1nc(O)c2ccncc2n1)c1ccccc1` [Example 31, N-[2-(4-hydroxypyrido[3,4-d]pyrimidin-2-yl)oxyethyl]benzamide] showed an IC50 of no more than 100 nM.
Molecule `N#Cc1cccc(COc2nc(O)c3ccncc3n2)c1` [Example 32, 3-[(4-hydroxypyrido[3,4-d]pyrimidin-2-yl)oxymethyl]benzonitrile] has an IC50 of 100 to 1000 nM.
`Cn1ccc(COc2nc(O)c3ccncc3n2)n1` [Example 33, 2-[(1-methylpyrazol-3-yl)methoxy]pyrido[3,4-d]pyrimidin-4-ol] was tested, and the IC50 was 1000 to 10000 nM.
For `Oc1nc(Oc2ccccc2)nc2cnccc12` [Example 34, 2-phenoxypyrido[3,4-d]pyrimidin-4-ol], the IC50 was no more than 100 nM.
Work on `Oc1nc(OCc2ccccc2C(F)(F)F)nc2cnccc12` [Example 177, 2-{[2-(trifluoromethyl)phenyl]methoxy}pyrido[3,4-d]pyrimidin-4-ol] yielded an IC50 of 1000 to 10000 nM.
With `Oc1nc(OCc2ccccc2F)nc2cnccc12` [Example 178, 2-[(2-fluorophenyl)methoxy]pyrido[3,4-d]pyrimidin-4-ol] the IC50 was 1000 to 10000 nM.
`Oc1nc(OCc2cccc(F)c2)nc2cnccc12` [Example 179, 2-[(3-fluorophenyl)methoxy]pyrido[3,4-d]pyrimidin-4-ol] gave an IC50 of 1000 to 10000 nM.
`Oc1nc(OCc2ccc(F)cc2)nc2cnccc12` [Example 180, 2-[(4-fluorophenyl)methoxy]pyrido[3,4-d]pyrimidin-4-ol] was tested, and the IC50 was 1000 to 10000 nM.
In the case of `Oc1nc(OCc2cccc(F)c2F)nc2cnccc12` [Example 181, 2-[(2,3-difluorophenyl)methoxy]pyrido[3,4-d]pyrimidin-4-ol], the IC50 is reported as 1000 to 10000 nM.
Molecule `Oc1nc(OCc2cc(F)ccc2F)nc2cnccc12` [Example 182, 2-[(2,5-difluorophenyl)methoxy]pyrido[3,4-d]pyrimidin-4-ol] has an IC50 of 1000 to 10000 nM.
Molecule `Oc1nc(OCc2c(F)cccc2F)nc2cnccc12` [Example 183, 2-[(2,6-difluorophenyl)methoxy]pyrido[3,4-d]pyrimidin-4-ol] has an IC50 of 1000 to 10000 nM.
Work on `Oc1nc(OCc2cccc3ccccc23)nc2cnccc12` [Example 184, 2-(naphthalen-1-ylmethoxy)pyrido[3,4-d]pyrimidin-4-ol] yielded an IC50 of 1000 to 10000 nM.
`Oc1nc(OCc2ccccc2-c2ccccc2)nc2cnccc12` [Example 185, 2-[(2-phenylphenyl)methoxy]pyrido[3,4-d]pyrimidin-4-ol] gave an IC50 of 1000 to 10000 nM.
With `Oc1nc(OCc2cccc(-c3ccccc3)c2)nc2cnccc12` [Example 186, 2-[(3-phenylphenyl)methoxy]pyrido[3,4-d]pyrimidin-4-ol] the IC50 was 1000 to 10000 nM.
Work on `Oc1nc(OCc2ccc3ccccc3c2)nc2cnccc12` [Example 187, 2-(naphthalen-2-ylmethoxy)pyrido[3,4-d]pyrimidin-4-ol] yielded an IC50 of 1000 to 10000 nM.
Work on `Oc1nc(OCC2CCCc3ccccc32)nc2cnccc12` (stereo not drawn) [Example 188, 2-(1,2,3,4-tetrahydronaphthalen-1-ylmethoxy)pyrido[3,4-d]pyrimidin-4-ol] yielded an IC50 of 100 to 1000 nM.
`Oc1nc(OC2Cc3ccccc3C2)nc2cnccc12` [Example 189, 2-(2,3-dihydro-1H-inden-2-yloxy)pyrido[3,4-d]pyrimidin-4-ol] was tested, and the IC50 was 100 to 1000 nM.
`Oc1nc(OCC2CCc3ccccc32)nc2cnccc12` (stereo not drawn) [Example 190, 2-(2,3-dihydro-1H-inden-1-ylmethoxy)pyrido[3,4-d]pyrimidin-4-ol] showed an IC50 of 100 to 1000 nM.
In the case of `Oc1nc(OCC2CCc3ccccc3C2)nc2cnccc12` (stereo not drawn) [Example 191, 2-(1,2,3,4-tetrahydronaphthalen-2-ylmethoxy)pyrido[3,4-d]pyrimidin-4-ol], the IC50 is reported as 100 to 1000 nM.
`Oc1nc(OC2CCc3ccccc32)nc2cnccc12` (stereo not drawn) [Example 192, 2-(2,3-dihydro-1H-inden-1-yloxy)pyrido[3,4-d]pyrimidin-4-ol] was tested, and the IC50 was 1000 to 10000 nM.
With `Oc1nc(OCc2coc3ccccc23)nc2cnccc12` [Example 193, 2-(1-benzofuran-3-ylmethoxy)pyrido[3,4-d]pyrimidin-4-ol] the IC50 was 100 to 1000 nM.
Work on `Oc1nc(OCC2COc3ccccc32)nc2cnccc12` (stereo not drawn) [Example 194, 2-(2,3-dihydro-1-benzofuran-3-ylmethoxy)pyrido[3,4-d]pyrimidin-4-ol] yielded an IC50 of 1000 to 10000 nM.
`Oc1nc(OCC2CCOc3ccccc32)nc2cnccc12` (stereo not drawn) [Example 195, 2-(3,4-dihydro-2H-1-benzopyran-4-ylmethoxy)pyrido[3,4-d]pyrimidin-4-ol] gave an IC50 of 100 to 1000 nM.
`Oc1nc(OC2CCCc3ccccc32)nc2cnccc12` (stereo not drawn) [Example 196, 2-(1,2,3,4-tetrahydronaphthalen-1-yloxy)pyrido[3,4-d]pyrimidin-4-ol] gave an IC50 of 1000 to 10000 nM.
Work on `Oc1nc(OC2CCOc3ccccc32)nc2cnccc12` (stereo not drawn) [Example 197, 2-(3,4-dihydro-2H-1-benzopyran-4-yloxy)pyrido[3,4-d]pyrimidin-4-ol] yielded an IC50 of 100 to 1000 nM.
Work on `Cn1cnc(-c2nccc3c(=O)[nH]cnc23)c1` [Example 198, 8-(1-methylimidazol-4-yl)-3H-pyrido[3,4-d]pyrimidin-4-one] yielded an IC50 of 100 to 1000 nM.
